{
  "source": "paper PMC8962522",
  "about": "“Direct interaction of TrkA/CD44v3 is essential for NGF-promoted aggressiveness of breast cancer cells” (Journal of Experimental & Clinical Cancer Research : CR, 2022)",
  "test_system": "CD44v3 in MDA-MB-231 cells",
  "experiment": "Flow cytometry, plasma membrane CD44v3",
  "type": "cell-based",
  "conditions": "MDA-MB-231, flow cytometry",
  "from_the_text": "The CD44v3- and CD44v6-containing isoforms expressing respectively exon 8 and 11(Fig. 1A) can interact with growth factor receptors. Using COS-7 cells with low CD44 and TrkA expression (Supplementary Fig. 1A-D), we differentially expressed TrkA and CD44s or a CD44 variant, either CD44v3 or CD44v6 (Fig. 1B, supplementary Fig. 2). […] Additionally, we evaluated the expression of TrkA and CD44v3 at the membrane level or in cells by immunofluorescence in MDA-MB-231 cells.\nSupplementary file 13046_2022_2314_MOESM3_ESM.pdf: Additional file 3: Supplementary Figure 1. Validation of the ectopic expression of CD44 and/or TrkA in COS-7 cells. The expression of all CD44 isoforms (A), CD44 variant 3 (B), CD44 variant 6 (C) and TrkA ([…]; D) was evaluated by RT–qPCR (normalized using PUM-1). No expression of CD44, CD44 variants [3 or 6] or TrkA was detected in COS-7 cells (A-D) compared with that in cells transfected with the expression plasmid carrying each protein. […] Quantification of the PLA results was performed using ImageJ software (30 randomly chosen fields per condition of three different experiments). […] CD44v3 and CD44v6 levels at the plasma membrane were assessed by flow cytometry (A-D). The plasma membrane and total TrkA and CD44v3 levels were also quantified by confocal microscopy (E-H). […] The CD44v3/NGF interaction was evaluated using microscale thermophoresis (MST). […]",
  "data": [
    {"substance": "NGF: recombinant human β-NGF (Alomone Labs, Israel)", "values": [
      {"measurement": "increase of plasma membrane CD44v3", "setting": "CD44v3-APC, histogram with No stim., NGF (5 min), NGF (30 min)", "result": 33, "unit": "%"},
      {"measurement": "plasma membrane level of CD44v3 (in words)", "setting": "NGF stimulation", "result": "increased the plasma membrane level of CD44v3"}
    ]}
  ]
}
